According to patent US20180200257A1, “METHODS FOR THE TREATMENT OF INFLAMMATORY DISORDERS” (Galapagos NV, priority 2015, published 2018):

Test system: subjects with moderately to severely active RA who have an inadequate response to methotrexate (MTX)
Assay: Study 1 (add-on to MTX) - DAS28(CRP) scores
Assay type: in vivo, human
Set-up: key to DAS28(CRP) mean CFB (LOCF): change from baseline in DAS28(CRP) score (joints, CRP, 0-100 VAS)
Protocol: Double-blind, placebo-controlled add on study in subjects with moderately to severely active RA who have an inadequate response to methotrexate (MTX) (oral or parenteral).
595 subjects randomized to one of 6 dose regimens of Compound 1 (dosed as [Compound 1:HCl:3H2O]) (3 dose levels administered either once or twice daily) or placebo on top of each subject's stable dose of MTX.
Compound 1 (dosed as [Compound 1:HCl:3H2O]) is dosed for twelve weeks once daily (q.d.) (50 mg, 100 mg or 200 mg) or twice daily (b.i.d.) (25 mg, 50 mg or 100 mg); or placebo.
At Week 12, the subjects on placebo who have not achieved 20% improvement in swollen joint count (SJC66) and tender joint count (TJC68) are re-randomized automatically to receive Compound 1 (dosed as a [Compound 1:HCl:3H2O]) either at 100 mg q.d. or 50 mg b.i.d. doses in a blinded fashion; subjects on 50 mg q.d. who have not achieved 20% improvement in SJC66 and TJC68 will be assigned to 100 mg q.d. and subjects on 25 mg b.i.d. that have not achieved a 20% improvement in SJC66 and TJC68 will be assigned to 50 mg b.i.d. Subjects who switch treatment at week 12 are handled as if they discontinued at week 12 for the purpose of statistical analysis, whereas subjects in the other groups will maintain their randomized treatment until Week 24.
The (DAS28(CRP)) is a system developed and validated by the European League Against Rheumatism (EULAR) to measure the progress and improvement of rheumatoid arthritis and has been extensively validated (Wells et al., 2008). The DAS28(CRP) scoring includes a 28 tender and swollen joint count, CRP measurement from blood analysis, and a general health assessment on a visual analog scale (Fransen et al., 2003).
DAS28(CRP) values range from 2.0 to 10.0, and more particularly reflect the following status: • Remission: DAS28(CRP) ≤2.6 • Low Disease activity: 2.6 <DAS28(CRP) ≤3.2 • Moderate Disease Activity: 3.2 <DAS28(CRP) ≤5.1 • High Disease Activity: DAS28(CRP) >5.1
In practice, the DAS28(CRP) measurement involves the evaluation 28 different joints including in the measurement (proximal interphalangeal joints (10 joints), metacarpophalangeal joints (10), wrists (2), elbows (2), shoulders (2), and knees (2)). When looking at these joints, both the number of joints with tenderness upon touching and swelling are counted.
Secondly, C-reactive protein level is measured.
Finally, the patient makes a subjective assessment of disease activity during the preceding 7 days on a scale between 0 and 100, where 0 is “no activity” and 100 is “highest activity possible”.
The DAS28(CRP) score is then calculated as follows:
Firstly, the patient is asked to make a vertical mark on a 100 mm Visual Analog Scale (VAS) corresponding to their general health or global disease activity on a touch screen to measure the VAS value, which is used in the formula below.
Secondly, a swollen and tender joint examination is then performed on the patient. The swollen and tender joints are recorded. From this examination are obtained the total amount of swollen joints (SJC) and the total amount of tender joints (TJC), which are used in the formula below.
Thirdly, C-reactive protein (CRP) levels are measured.
Finally, the values obtained above (VAS, TJC28, SJC28, and CRP) are computed into the following Formula to obtain the DAS28(CRP) score.
DAS28(CRP)=0.56*√{square root over (TJC28)}+0.28√{square root over (SJC28)}+[…] ln(CRP+1)+0.014*VAS
The improvement (decreases) in the DAS28(CRP) scores for each patient group at weeks 1, 2, 4, 8 and 12 is shown in Table LXXXVII and Table LXXXVIII below, together with the Hommel-corrected p-value for the pairwise comparisons of each group with placebo.
The number of subjects (N) provided in each groups corresponds to the number of subjects starting the study in each group, and the DAS28 (CRP) data reported below corresponds to the responding subjects continuing for the entire 24 weeks on their initial treatment course.

Question: With `O=C(Nc1nc2cccc(-c3ccc(CN4CCS(=O)(=O)CC4)cc3)n2n1)C1CC1` [Compound 1, cyclopropanecarboxylic acid {5-[4-(1,1-dioxo-thiomorpholin-4-ylmethyl)-phenyl]-[1,2,4]triazolo[1,5-a]pyridin-2-yl}-amide] as the compound, how does the “DAS28(CRP) mean CFB (LOCF)” value (50 mg q.d., week 1, 12 weeks results) read?
Answer: Its value is −0.65.

Question: And the “DAS28(CRP) mean CFB (LOCF)” value (50 mg q.d., week 1, 24 weeks results)?
Answer: Its value is −0.65.

Question: And the “DAS28(CRP) mean CFB (LOCF)” value (50 mg q.d., week 2, 12 weeks results)?
Answer: The value was −0.94.

Question: What about the “DAS28(CRP) mean CFB (LOCF)” value (50 mg q.d., week 2, 24 weeks results) of the same compound?
Answer: The value was −0.94.

Question: And the “DAS28(CRP) mean CFB (LOCF)” value (50 mg q.d., week 4, 12 weeks results)?
Answer: Its value is −1.28.

Question: What about the “DAS28(CRP) mean CFB (LOCF)” value (50 mg q.d., week 4, 24 weeks results) of the same compound?
Answer: Its value is −1.28.

Question: What about the “DAS28(CRP) mean CFB (LOCF)” value (50 mg q.d., week 12, 12 weeks results) of the same compound?
Answer: The value was −1.75.

Question: What about the “DAS28(CRP) mean CFB (LOCF)” value (50 mg q.d., week 12, 24 weeks results) of the same compound?
Answer: The value was −1.75.

Question: What about the “DAS28(CRP) mean CFB (LOCF)” value (50 mg q.d., week 16, 24 weeks results) of the same compound?
Answer: The value was −1.91.

Question: What about the “DAS28(CRP) mean CFB (LOCF)” value (50 mg q.d., week 20, 24 weeks results) of the same compound?
Answer: The value was −1.99.

Question: What about the “DAS28(CRP) mean CFB (LOCF)” value (50 mg q.d., week 24, 24 weeks results) of the same compound?
Answer: The value was −1.98.

Question: What about the “% patients reaching low disease activity and/or remission at week 12 (LOCF)” value (50 mg q.d., 12 weeks results) of the same compound?
Answer: The value was 24%.

Question: What about the “% patients reaching low disease activity at week 12 (LOCF)” value (50 mg q.d., 12 weeks results) of the same compound?
Answer: The value was 12%.

Question: And the “% patients reaching remission at week 12 (LOCF)” value (50 mg q.d., 12 weeks results)?
Answer: Its value is 12%.

Question: What about the “% patients reaching low disease activity and/or remission at week 24 (LOCF)” value (50 mg q.d., 24 weeks results) of the same compound?
Answer: Its value is 33%.

Question: What about the “% patients reaching low disease activity at week 24 (LOCF)” value (50 mg q.d., 24 weeks results) of the same compound?
Answer: Its value is 12%.

Question: And the “% patients reaching remission at week 24 (LOCF)” value (50 mg q.d., 24 weeks results)?
Answer: Its value is 21%.

Question: What about the “DAS28(CRP) mean CFB (LOCF)” value (50 mg q.d., week 8, 12 weeks results) of the same compound?
Answer: Its value is −1.66.

Question: And the “DAS28(CRP) mean CFB (LOCF)” value (50 mg q.d., week 8, 24 weeks results)?
Answer: Its value is −1.66.

Question: What about the “DAS28(CRP) mean CFB (LOCF)” value (100 mg q.d., week 1, 12 weeks results) of the same compound?
Answer: Its value is −1.01.

Question: And the “DAS28(CRP) mean CFB (LOCF)” value (100 mg q.d., week 1, 24 weeks results)?
Answer: Its value is −1.00.

Question: What about the “DAS28(CRP) mean CFB (LOCF)” value (100 mg q.d., week 2, 12 weeks results) of the same compound?
Answer: The value was −1.50.

Question: And the “DAS28(CRP) mean CFB (LOCF)” value (100 mg q.d., week 2, 24 weeks results)?
Answer: The value was −1.51.

Question: What about the “DAS28(CRP) mean CFB (LOCF)” value (100 mg q.d., week 4, 12 weeks results) of the same compound?
Answer: The value was −1.88.

Question: What about the “DAS28(CRP) mean CFB (LOCF)” value (100 mg q.d., week 4, 24 weeks results) of the same compound?
Answer: Its value is −1.89.

Question: And the “DAS28(CRP) mean CFB (LOCF)” value (100 mg q.d., week 8, 24 weeks results)?
Answer: The value was −2.13.

Question: And the “DAS28(CRP) mean CFB (LOCF)” value (100 mg q.d., week 12, 12 weeks results)?
Answer: The value was −2.21.

Question: And the “DAS28(CRP) mean CFB (LOCF)” value (100 mg q.d., week 12, 24 weeks results)?
Answer: Its value is −2.23.

Question: What about the “DAS28(CRP) mean CFB (LOCF)” value (100 mg q.d., week 16, 24 weeks results) of the same compound?
Answer: The value was −2.51.

Question: What about the “DAS28(CRP) mean CFB (LOCF)” value (100 mg q.d., week 20, 24 weeks results) of the same compound?
Answer: The value was −2.65.

Question: And the “DAS28(CRP) mean CFB (LOCF)” value (100 mg q.d., week 24, 24 weeks results)?
Answer: The value was −2.70.

Question: What about the “% patients reaching low disease activity and/or remission at week 12 (LOCF)” value (100 mg q.d., 12 weeks results) of the same compound?
Answer: Its value is 34%.

Question: What about the “% patients reaching low disease activity at week 12 (LOCF)” value (100 mg q.d., 12 weeks results) of the same compound?
Answer: The value was 13%.

Question: And the “% patients reaching remission at week 12 (LOCF)” value (100 mg q.d., 12 weeks results)?
Answer: The value was 21%.

Question: And the “% patients reaching low disease activity and/or remission at week 24 (LOCF)” value (100 mg q.d., 24 weeks results)?
Answer: The value was 51%.

Question: And the “% patients reaching low disease activity at week 24 (LOCF)” value (100 mg q.d., 24 weeks results)?
Answer: The value was 14%.

Question: What about the “% patients reaching remission at week 24 (LOCF)” value (100 mg q.d., 24 weeks results) of the same compound?
Answer: Its value is 36%.

Question: What about the “DAS28(CRP) mean CFB (LOCF)” value (100 mg q.d., week 8, 12 weeks results) of the same compound?
Answer: Its value is −2.12.

Question: And the “DAS28(CRP) mean CFB (LOCF)” value (200 mg q.d., week 1, 12 weeks results)?
Answer: Its value is −1.17.

Question: What about the “DAS28(CRP) mean CFB (LOCF)” value (200 mg q.d., week 1, 24 weeks results) of the same compound?
Answer: The value was −1.17.

Question: And the “DAS28(CRP) mean CFB (LOCF)” value (200 mg q.d., week 2, 12 weeks results)?
Answer: Its value is −1.52.

Question: What about the “DAS28(CRP) mean CFB (LOCF)” value (200 mg q.d., week 2, 24 weeks results) of the same compound?
Answer: Its value is −1.52.

Question: And the “DAS28(CRP) mean CFB (LOCF)” value (200 mg q.d., week 4, 12 weeks results)?
Answer: The value was −1.92.

Question: What about the “DAS28(CRP) mean CFB (LOCF)” value (200 mg q.d., week 4, 24 weeks results) of the same compound?
Answer: The value was −1.92.

Question: What about the “DAS28(CRP) mean CFB (LOCF)” value (200 mg q.d., week 8, 24 weeks results) of the same compound?
Answer: The value was −2.31.

Question: What about the “DAS28(CRP) mean CFB (LOCF)” value (200 mg q.d., week 12, 12 weeks results) of the same compound?
Answer: The value was −2.49.

Question: And the “DAS28(CRP) mean CFB (LOCF)” value (200 mg q.d., week 12, 24 weeks results)?
Answer: The value was −2.47.

Question: What about the “DAS28(CRP) mean CFB (LOCF)” value (200 mg q.d., week 16, 24 weeks results) of the same compound?
Answer: Its value is −2.70.

Question: What about the “DAS28(CRP) mean CFB (LOCF)” value (200 mg q.d., week 20, 24 weeks results) of the same compound?
Answer: The value was −2.86.

Question: What about the “DAS28(CRP) mean CFB (LOCF)” value (200 mg q.d., week 24, 24 weeks results) of the same compound?
Answer: The value was −2.80.

Question: What about the “% patients reaching low disease activity and/or remission at week 12 (LOCF)” value (200 mg q.d., 12 weeks results) of the same compound?
Answer: The value was 37%.

Question: And the “% patients reaching low disease activity at week 12 (LOCF)” value (200 mg q.d., 12 weeks results)?
Answer: Its value is 15%.

Question: And the “% patients reaching remission at week 12 (LOCF)” value (200 mg q.d., 12 weeks results)?
Answer: The value was 22%.

Question: What about the “% patients reaching low disease activity and/or remission at week 24 (LOCF)” value (200 mg q.d., 24 weeks results) of the same compound?
Answer: The value was 51%.

Question: What about the “% patients reaching low disease activity at week 24 (LOCF)” value (200 mg q.d., 24 weeks results) of the same compound?
Answer: The value was 26%.

Question: And the “% patients reaching remission at week 24 (LOCF)” value (200 mg q.d., 24 weeks results)?
Answer: The value was 26%.

Question: What about the “DAS28(CRP) mean CFB (LOCF)” value (200 mg q.d., week 8, 12 weeks results) of the same compound?
Answer: The value was −2.30.
